Converted amounts (≈) assume the structure as drawn.
Key:
Type in all cases: cell-based
Moraxella catarrhalis = assay: MIC assay, M. catarrhalis; settings: BHI, 16 h
Method: (§1) These assays are adapted from NCCLS protocols M7-A4 and M27-A (NCCLS vol 17:9 and vol 17:2) as modified by Sandven, S. Clin. Micro. (1999) 37:12, p.3856-3859. MIC values for Aspergillus fumigatus were determined using NCCLS protocol M38-P.
(§2) All compounds were dissolved in 100% DMSO to a stock concentration of 10 mM and use fresh or stored at −80° C. Stock compounds were kept frozen until needed and used freshly with no more then one freeze-thaw cycle. When used for test purposes, compounds were diluted in the appropriate media depending on the organism being tested.
(§3) For yeast and aspergillus species, seven 1:2 serial dilutions of compound in appropriate media buffered with MOPS at pH 7.0 were prepared such that the final starting test compound concentrations were 50.0 uM for yeast and 50 uM aspergillus species. For bacteria, dilutions were made in growth media used for the particular bacteria being tested.
(§4) Inoculums are made in the same manner as yeast except all dilutions are made in normal saline, with a final dilution of 1:200 and an inoculum of 10 μL. VRE are vancomycin resistant enterococci, BM4147 and UCD-3 represent two different sources of VRE. MRSA are […] resistant Staphylococcus Aureus.

[1] = system: VRE-CSUC4 (vancomycin resistant enterococci); assay: MIC assay, VRE strain CSUC-4; settings: for MIC Assay VRE Strains: CSUC-4 van25: 25 μg/mL Vancomycin - 24 h; for MIC Assay VRE Strains: CSUC-4 van0: No vancomycin - 16 h
Method: as §1, §2, §3, §4

Bacillus cereus = assay: MIC assay, B. cereus; settings: CAMHB, 16 h
Method: as §1, §2, §3, §4

Haemophilus influenzae = assay: MIC assay, H. influenzae; settings: HTM, 24 h
Method: as §1, §2, §3, §4

Streptococcus pneumoniae = assay: MIC assay, S. pneumoniae; settings: CAMHB + 5% LHB, 24 h
Method: as §1, §2, §3, §4

Candida albicans = assay: MIC assay, yeast C. albicans; settings: RPMI, 48 h, Alamar Blue
[2] = system: VRE-UCD3 (vancomycin resistant enterococci); assay: MIC assay, VRE strain UCD-3; settings: for MIC Assay VRE Strains: UCD-3 van25: 25 μg/mL Vancomycin - 24 h; for MIC Assay VRE Strains: UCD-3 van0: No vancomycin - 16 h
Method: as §1, §2, §3, §4

Pseudomonas aeruginosa = assay: MIC assay, P. aeruginosa; settings: CAMHB, 16 h
Method: as §1, §2, §3, §4

Staphylococcus aureus = assay: MIC assay, S. aureus; settings: CAMHB, 16 h
Method: as §1, §2, §3, §4

[3] = system: VRE-UL17 (vancomycin resistant enterococci); assay: MIC assay, VRE strain UL-17; settings: for MIC Assay VRE Strains: UL-17 van25: 25 μg/mL Vancomycin - 24 h; for MIC Assay VRE Strains: UL-17 van0: No vancomycin - 16 h
Method: as §1, §2, §3, §4

[4] = system: VRE-BM4147 (vancomycin resistant enterococci); assay: MIC assay, VRE strain BM4147; settings: for MIC Assay VRE Strains: BM4147 van25: 25 μg/mL Vancomycin - 24 h; for MIC Assay VRE Strains: BM4147 van0: No vancomycin - 16 h
Method: as §1, §2, §3, §4

Aspergillus fumigatus = assay: MIC assay, filamentous fungi A. fumigatus; settings: 48 h at 35C, no visible growth
WST-CEM T-cell line = assay: Toxicity screen on WST-CEM T-cell line; settings: WST-CEM T-cell line; ND = no drug control
Method: Toxicity screen was done on a WST-CEM T-cell line and the minimum percent verses a no drug control was measured.

E coli = assay: MIC assay, E coli
Method: as §1, §2, §3, §4

[5] = system: MRSA (methylacillin resistant Staphylococcus Aureus); assay: MIC assay, MRSA
Method: as §1, §2, §3, §4

Compound | MIC Assay Other Strains: M. catarrhalis (Moraxella catarrhalis) | MIC Assay VRE Strains: CSUC-4 van25 [1] | MIC Assay VRE Strains: CSUC-4 van0 [1] | MIC Assay Other Strains: B. cereus (Bacillus cereus) | MIC Assay Other Strains: H influenzae (Haemophilus influenzae) | MIC Assay Other Strains: S. pneumoniae (Streptococcus pneumoniae) | MIC Assay C. Albicans (Candida albicans) | MIC Assay VRE Strains: UCD-3 van25 [2] | MIC Assay VRE Strains: UCD-3 van0 [2] | MIC Assay Other Strains: P. aeruginosa (Pseudomonas aeruginosa) | MIC Assay Other Strains: S. aureus (Staphylococcus aureus) | MIC Assay VRE Strains: UL-17 van25 [3] | MIC Assay VRE Strains: UL-17 van0 [3] | MIC Assay VRE Strains: BM4147 van25 [4] | MIC Assay VRE Strains: BM4147 van0 [4] | MIC Assay A fumigatus (Aspergillus fumigatus) | CEM: toxicity screen, minimum percent verses a no drug control (WST-CEM T-cell line) | MIC Assay E coli (E coli) | MIC Assay MRSA [5]
Cn1cc(NC(=O)c2cc(NC(=O)CN)cn2C)cc1C(=O)NCCNC(=O)c1cc(NC(=O)c2cc(NC(=O)CN)cn2C)cn1C [Compound 10, bis-1,2-{4-[(NH2CH2CONH)-1-methyl-1H-pyrrol-2-yl-carbonylamino]-1-methyl-1H-pyrrol-2-ylcarbonylamino}ethane] | >45.5 µM | >45.5 µM | >45.5 µM | >45.5 µM | >45.5 µM | >45.5 µM | >44.4 µM | >45.5 µM | >45.5 µM | >45.5 µM | >45.5 µM | >45.5 µM | >45.5 µM | >45.5 µM | >45.5 µM | – | – | – | –
Cn1cc(NC(=O)CN)cc1C(=O)Nc1cc(C(=O)NC2CCC(CC3CCC(NC(=O)c4cc(NC(=O)c5cc(NC(=O)CN)cn5C)cn4C)CC3)CC2)n(C)c1 (centres unmarked) [Compound 21] | >45.5 µM | >45.5 µM | >45.5 µM | >45.5 µM | >45.5 µM | >45.5 µM | >44.4 µM | >45.5 µM | >45.5 µM | >45.5 µM | >45.5 µM | >45.5 µM | >45.5 µM | >45.5 µM | >45.5 µM | – | – | – | –
Cn1cc(NC(=O)c2cc(NC(=O)CN)cn2C)cc1C(=O)NCCCN(CCCNC(=O)c1cc(NC(=O)c2cc(NC(=O)CN)cn2C)cn1C)C(=O)OCc1ccccc1 [Compound 42] | 11.4 µM (≈ 9.89 µg/mL) | 22.7 µM | 22.7 µM (≈ 19.7 µg/mL) | 11.4 µM (≈ 9.89 µg/mL) | >45.5 µM | 1.4 µM | >44.4 µM | 45.5 µM | 45.5 µM (≈ 39.5 µg/mL) | >45.5 µM | >45.5 µM | 45.5 µM | 22.7 µM (≈ 19.7 µg/mL) | >45.5 µM | >45.5 µM | – | – | – | –
CC(C)CCn1cc(NC(=O)CN)cc1C(=O)Nc1ccc(NC(=O)c2cc(NC(=O)CN)cn2CCC(C)C)cc1 [Compound 188a] | – | – | – | 22.7 µM (≈ 13.1 µg/mL) | – | – | >44.4 µM | 11.4 µM | – | – | – | – | – | 11.4 µM | – | >50 µM | 6.9% ND | 22.7 µM (≈ 13.1 µg/mL) | 11.4 µM (≈ 6.6 µg/mL)

— US20020198254A1, “Polyamide analogs” (priority 2000, published 2002)
